These results are taken from ChEMBL document CHEMBL1201862, “PubChem BioAssay data set” (2004).

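Growth conditions: 96-well plates. Treatment: test compound, 48 hours, 5 concentrations. Analysis: linear interpolation between bracketing concentrations; unreached endpoints set to highest concentration. GI50 is the concentration that inhibits growth by half.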 Activity calls are given as the source filed them. No stated cut-off is given here; in the data, active = GI50 up to about 1.1 µM and inactive = higher. Bounds are passed on as bounds.

What all share (assay): inhibition of tumour cell growth, NCI panel, 48 h
Assay [1] has as its system CCRF-CEM.
Assay [2] concerns SNB-75.
Assay [3] relates to SF-539.
In assay [4] the test system is NCI-H522.
Assay [5] relates to HT-29.
Assay [6] deals with HCT-15.
Assay [7] deals with RPMI-8226.
The test system of assay [8] is NCI-H226.
The test system of assay [9] is HL-60.
Assay [10] relates to IGROV-1.
Assay [11] relates to UO-31.
Assay [12] relates to SK-MEL-28.
In assay [13] the test system is OVCAR-8.
Assay [14] deals with HCT-116.
Assay [15] concerns HCC 2998.
Assay [16] concerns K562.
Assay [17] relates to SNB-19.
Assay [18] concerns KM12.
The subject of assay [19] is HOP-62.
The test system of assay [20] is UACC-257.

In the case of `COC(=O)C(F)C(Br)C(=O)OC` (stereo not given), the GI50 in assay [1] is 0.684 µM (active); in assay [2] it was 12.3 µM (inactive); in assay [3], 5.48 µM (inactive); in [4] it was 1.43 µM (inactive); in [5], 2.57 µM (inactive); in assay [6] it was 1.82 µM. Also, the GI50 in assay [7] is 1.41 µM (inactive); in assay [8], 20.9 µM (inactive); in assay [9], 1.95 µM (inactive); in assay [10], 2.69 µM (inactive); in assay [11], 1.89 µM (inactive); in assay [12] it was 18 µM (inactive). For the same compound, the GI50 in [13] is 3.63 µM (inactive); in [14], 2.74 µM (inactive); in [15] it was 8 µM (inactive); in assay [16] it was 1.63 µM (inactive); in assay [17] it was 30.7 µM (inactive); in [18], 20.3 µM (inactive). Also, the figures for the GI50 in assay [19] and in assay [20] were 16.3 µM (inactive) and 14.6 µM (inactive), respectively.
Consider `CCOc1ccc2c(C)cc(=O)oc2c1`, for which the GI50 in assay [1] is > 100 µM (inactive); in assay [2] it was > 100 µM (inactive); in assay [3], > 100 µM (inactive); in assay [4], > 100 µM (inactive); in assay [5], > 100 µM (inactive); in [6], more than 100 µM. Also, the GI50 in [7], in assay [8], in [9], in [10], in assay [11] and in assay [12] was > 100 µM (inactive) each time. Moreover, the GI50 in assay [13], in assay [14], in [15], in [16], in assay [17] and in assay [18] was > 100 µM (inactive) in each case. Besides, the GI50 in assay [19] and in [20] was > 100 µM (inactive) in each case.
Regarding `CC1CC(C[N+](=O)[O-])CC2(C1)OCCO2` (stereo not given), the GI50 in assay [1] is > 100 µM (inactive); in [2] it was > 100 µM (inactive); in [3], > 100 µM (inactive); in assay [4], > 100 µM (inactive); in assay [6] it was more than 100 µM; in assay [7] it was > 100 µM (inactive). Moreover, the GI50 in [8], in assay [9], in assay [10], in assay [11], in assay [12] and in [13] was > 100 µM (inactive) in each case. Moreover, the GI50 in [14], in assay [15], in assay [16], in assay [17], in assay [18] and in assay [19] was > 100 µM (inactive) each time. Moreover, the GI50 in assay [20] was > 100 µM (inactive).
On to `O=C1CSC(/C=C/c2ccccc2)N1c1nc2cc3sc(N4C(=O)CSC4/C=C/c4ccccc4)nc3cc2s1` (stereo not given), for which the GI50 in [1] was 3.53 µM (inactive); in assay [2] it was 73.8 µM (inactive); in assay [3], 2.83 µM (inactive); in assay [4], 6.97 µM (inactive); in [5], 18 µM (inactive); in assay [6], more than 34.1 µM. Also, the GI50 in [7] is 22 µM (inactive); in assay [8] it was 17.1 µM (inactive); in assay [9] it was 68.1 µM (inactive); in assay [10] it was > 62.1 µM (inactive); in assay [11], > 51.5 µM (inactive); in [12], > 58.7 µM (inactive). Moreover, the GI50 in assay [13] is > 100 µM (inactive); in assay [14], 27.7 µM (inactive); in assay [15] it was 43.8 µM (inactive); in [16], 42.4 µM (inactive); in assay [17], > 84.5 µM (inactive); in [18] it was 48.9 µM (inactive). The GI50 is > 74 µM (inactive) in [19] and > 86.5 µM (inactive) in assay [20].
Consider `O=C(OCCOC(=O)c1ccc2c(c1)C1(SCCS1)c1ccccc1-2)c1ccc2c(c1)C1(SCCS1)c1ccccc1-2`, for which the GI50 was > 100 µM (inactive) in assay [1]; > 100 µM (inactive) in assay [2]; > 100 µM (inactive) in [3]; > 100 µM (inactive) in assay [4]; > 100 µM (inactive) in assay [5]; more than 100 µM in assay [6]. For the same compound, the GI50 in assay [7], in [8], in [9], in [10], in assay [11] and in [12] was > 100 µM (inactive) each time. Moreover, the GI50 in [13], in assay [14], in assay [15], in assay [16], in [17] and in [18] was > 100 µM (inactive) in each case. For the same compound, the GI50 in assay [19] and in assay [20] was > 100 µM (inactive) throughout.
Consider `Nc1ccccc1C(=O)N/N=C1\C(=O)Nc2ccccc21`, for which the GI50 in [1] is > 100 µM (inactive); in assay [2], 23.9 µM (inactive); in assay [3], > 100 µM (inactive); in [4], 89.9 µM (inactive); in [5], > 100 µM (inactive); in assay [6], more than 100 µM. In addition, the GI50 in [8] is > 100 µM (inactive); in [10] it was 64 µM (inactive); in assay [11] it was > 100 µM (inactive); in assay [13] it was > 100 µM (inactive); in assay [14] it was > 100 µM (inactive); in [15] it was > 100 µM (inactive). In addition, the GI50 in assay [16] was > 100 µM (inactive); in assay [17], 35.4 µM (inactive); in assay [18] it was 88.5 µM (inactive); in [19] it was 43.6 µM (inactive); in assay [20], > 100 µM (inactive).
With `COc1cc(/C=C2\N=C(c3ccccc3)N(C3Nc4cc5c(cc4S3)NC(N3C(=O)/C(=C/c4cc(OC)c(OC)c(OC)c4)N=C3c3ccccc3)S5)C2=O)cc(OC)c1OC` (stereo not given), the GI50 is > 100 µM (inactive) in assay [2]; 42 µM (inactive) in assay [3]; 60.3 µM (inactive) in assay [4]; 74.6 µM (inactive) in assay [5]; 57.5 µM in assay [6]; 28.8 µM (inactive) in [7]. Besides, the GI50 was > 100 µM (inactive) in assay [8]; 65.9 µM (inactive) in assay [9]; > 100 µM (inactive) in assay [10]; 54.1 µM (inactive) in assay [11]; > 100 µM (inactive) in [12]; 83.9 µM (inactive) in assay [13]. For the same compound, the GI50 in assay [14] is 77.6 µM (inactive); in assay [15], > 100 µM (inactive); in assay [16], 71.9 µM (inactive); in assay [18], 89.3 µM (inactive); in assay [19], > 100 µM (inactive); in [20], > 100 µM (inactive).
Take `CC[C@H]1CC(=O)c2c(cc3c(c2O)C(=O)c2ccccc2C3=O)[C@@]1(C#N)C(=O)OC(C)(C)C`: the GI50 in assay [2] was 4.1 µM (inactive); in assay [3] it was 4.13 µM (inactive); in assay [4], 2.29 µM (inactive); in assay [5] it was 3.37 µM (inactive); in assay [6], 2.07 µM; in assay [7] it was 3.33 µM (inactive). Moreover, the GI50 in [8] was 3.32 µM (inactive); in assay [10] it was 2.4 µM (inactive); in assay [11] it was 2.69 µM (inactive); in assay [12] it was 5.92 µM (inactive); in assay [13], 2.62 µM (inactive); in [14], 2.7 µM (inactive). The GI50 in assay [15] was 5.47 µM (inactive); in assay [17], 3.79 µM (inactive); in assay [18], 2.62 µM (inactive); in assay [19] it was 1.77 µM (inactive); in [20] it was 2.07 µM (inactive).
As for `OC1CCOc2ccccc21` (stereo not given), the GI50 in assay [1] is > 100 µM (inactive); in [3], > 100 µM (inactive); in assay [4], > 100 µM (inactive); in assay [5], > 100 µM (inactive); in assay [6] it was more than 100 µM; in assay [7] it was > 100 µM (inactive). Besides, the GI50 in assay [8], in assay [9], in assay [10], in assay [11], in assay [12] and in assay [13] was > 100 µM (inactive) in each case. Further, the GI50 in [14], in [15], in [16], in [17], in [18] and in assay [19] was > 100 µM (inactive) in each case.
Consider `COc1ccccc1N1C(=O)/C(=C\c2cc(OC)c(OC)c(OC)c2)SC1c1ccccc1` (stereo not given), for which the GI50 is 6.76 µM (inactive) in [1]; 99.3 µM (inactive) in assay [3]; 13.7 µM (inactive) in assay [4]; 45.3 µM (inactive) in assay [5]; 44.7 µM in assay [6]; 3.11 µM (inactive) in [7]. Also, the GI50 in [8] was 28.9 µM (inactive); in assay [9], 26.2 µM (inactive); in assay [11], 11.5 µM (inactive); in assay [12], 45.4 µM (inactive); in assay [13] it was 42 µM (inactive); in assay [14], 18.5 µM (inactive). In addition, the GI50 was > 100 µM (inactive) in assay [15]; 4.33 µM (inactive) in [16]; 27 µM (inactive) in assay [17]; 21.1 µM (inactive) in assay [18]; 27.8 µM (inactive) in assay [19]; 36.1 µM (inactive) in [20].
Consider `CN(C)CCNC(=O)c1cc2ccccc2c2nc3ccccc3nc12`, for which the GI50 is 1.19 µM (inactive) in assay [2]; 0.845 µM (active) in [3]; 1.89 µM (inactive) in assay [4]; 0.536 µM (active) in assay [5]; 0.522 µM in [6]; 0.522 µM (active) in assay [7]. Further, the GI50 is 0.841 µM (active) in assay [8]; 1.45 µM (inactive) in [10]; 1.8 µM (inactive) in assay [11]; 1.56 µM (inactive) in [12]; 0.771 µM (active) in assay [13]; 0.373 µM (active) in assay [14]. For the same compound, the GI50 was 1.1 µM (active) in [15]; 0.363 µM (active) in [16]; 1.43 µM (inactive) in assay [17]; 0.804 µM (active) in [18]; 2.39 µM (inactive) in assay [19]; 1.45 µM (inactive) in assay [20].
